Patent US7189724B2, “Quinoxaline derivatives having antiviral activity” (Valeant Research and Development, priority 2003, dated 2007)
pEC50, pIC50: −log10 of the molar value. Read-outs that look alike come from different tables or passages of the source.

How the values were obtained:
HCV NS5B polymerase = target: T1, HCV NS5B polymerase (Hepatitis C virus genotype 1b, UniProt Q9WMX2); test: De novo RNA synthesis activity assay for HCV NS5B polymerase; format: biochemical, HCV-1b CON1 strain
T1 construct: HCV NS5B was derived from a cDNA clone encoding HCV-1b CON1 strain, and was expressed and purified from E. coli; made in house; host or cells: E. coli
Excerpt: HCV NS5B was derived from a cDNA clone encoding HCV-1b CON1 strain, and was expressed and purified from E. coli. Various [α-^33P]rNTPs (3000 Ci/mmol) were purchased from Perkin Elmer. 3′-Deoxy ribonucleosides, their 5′-triphosphates and dinucleotide primers were from Sigma, TriLink (San Diego, Calif.) or ICN Biochemicals. All other reagents were of the highest grade available from ICN, Sigma, Fisher, or Ambion.
An HCV mini-genome of 2.1-kb contains an entire 5′-UTR (untranslated region), part of NS5B sequence and an entire 3′-UTR was constructed from an internal deletion between two KpnI sites on the HCV replicon plasmid, pFK389/NS3-3′. To generate the in vitro transcribed mini-genome RNA, the plasmid DNA was linearized with AseI and ScaI and transcribed in vitro using a MegaScript kit (Ambion, Austin, Tex.). After phenol-chloroform extraction and isopropanol precipitation, the RNA was resuspended in RNase-free water and stored at −80° C. before use. This HCV strain CON1-based template was used for the standard NS5B-catalyzed RNA synthesis assay.
A standard NS5B activity assay was performed at 23C in a total volume of 25 μl. The reaction buffer contained 50 mM Tris, pH 7.0, 10 mM MgCl2, 50 mM NaCl, 5 mM DTT (add fresh) and 0.05 mg/ml BSA. 0.4 μg of the RNA template was incubated with NS5B enzyme (250 nM) before adding a mixture of radiolabeled nucleotide (0.2 μCi) and cold nucleotide cocktail to initiate a reaction. The assay was incubated for 1 hr and terminated by addition of 75 μl of 5% trichloroacetic acid (TCA) and 0.05% pyrophosphate solution. The quenched solution was incubated at room temperature for 10 min to precipitate out polymeric products and subsequently transferred to a 96-well white GF/B filter microplate (Packard Instrument) using a Packard Filtermate Universal Harvester. The filter plate was washed five times by water and one time by ethanol before vacuum drying. 40 μl of liquid scintillation cocktail (Packard MicroSint™) was added to each well. Radioactivity incorporated into the product was counted in a 96-well format using a Packard TopCount. IC50 values, defined as the inhibitor concentration to suppress 50% of NS5B activity, were determined by varying the compound concentration. The results in Table 1 are data obtained using the HCV NS5B assays described above.

[1] = tested on: HCV replicon RNA in replicon cells (Huh-7); test: HCV Replicon Assay (reduction of HCV RNA, QuantiGene); format: cell-based; conditions: Hepatitis C virus; for pIC50: read-out: HCV Replicon (IC50); for pEC50: first part of Table 1 (scaffold drawing 18)
Procedure: The anti-HCV activity of the quinoxaline derivatives was tested by replicon and BVDV cell-line based assays. The HCV NS5B polymerase activity was tested as described below, and was further tested for its capability of inhibition of replication of the hepatitis C virus in a cell-line based HCV replicon assay as described in V. Lohmann, F. Komer, J.-O. Koch, U. Herian, L. Theilmann, R. Bartenschlager, “Replication of a Subgenomic Hepatitis C virus RNAs in a Hepatoma Cell Line”, Science, 1999, 285:110.
HCV Replicon Assay. The replicon cells (Huh-7) contain replicating HCV replicon RNA, which was modified in the structural region (replacing the structural region with a neomycin resistance marker). Survival of the replicon cells under G418 selection relies on the replication of HCV RNA and subsequently expression of neomycin phosphoryltransferase. The ability of modified nucleoside libraries and compounds to suppress HCV RNA replication was determined using the QuantiGene™ Assay Kit (Bayer Diagnostics, Tarrytown N.Y.). The assay measures the reduction of HCV RNA molecules in the treated cells. Replicon cells were incubated at 37° C. for 3 days in the presence of nucleoside libraries and compounds before being harvested for detection. The assay protocol was modified based on literature procedure (V. Lohmann, F. Komer, J. O. Koch, U. Herian, L. Theilmann, R. Bartenschlager, Science, 1999, 285, 110–113). The HCV subgenomic replicon cell line was provided by Dr. R. Bartenschlager.

[2] = NS5B 250 nM, 23C, 1 hr, second part of Table 1 (scaffold drawing 19), read-out: HCV NS5B (EC50)
[3] = 72 h, Huh-7 replicon cells, 3 days at 37° C., second part of Table 1 (scaffold drawing 19)
[4] = 72 h, Huh-7 replicon cells, 3 days at 37° C.

T1 sequence (Q9WMX2 2420-3010): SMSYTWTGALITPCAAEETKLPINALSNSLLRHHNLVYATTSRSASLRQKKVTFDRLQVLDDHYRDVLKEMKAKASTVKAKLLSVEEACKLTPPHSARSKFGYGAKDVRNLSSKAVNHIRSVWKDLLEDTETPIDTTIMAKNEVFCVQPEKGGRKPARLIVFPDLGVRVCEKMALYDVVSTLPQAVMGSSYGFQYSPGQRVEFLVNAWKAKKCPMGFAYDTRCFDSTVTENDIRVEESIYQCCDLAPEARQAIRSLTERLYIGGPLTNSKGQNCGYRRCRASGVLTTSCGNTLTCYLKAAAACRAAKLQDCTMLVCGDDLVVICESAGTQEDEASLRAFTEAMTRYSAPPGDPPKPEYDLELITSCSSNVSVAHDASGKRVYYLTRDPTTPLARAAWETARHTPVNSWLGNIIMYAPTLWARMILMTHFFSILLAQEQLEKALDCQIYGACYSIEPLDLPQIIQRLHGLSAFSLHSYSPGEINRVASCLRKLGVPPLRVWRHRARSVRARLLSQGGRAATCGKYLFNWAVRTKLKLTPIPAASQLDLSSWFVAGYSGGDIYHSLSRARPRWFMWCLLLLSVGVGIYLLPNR

Compound | pEC50 (HCV NS5B polymerase) | pEC50 (HCV NS5B polymerase; [2]) | pIC50 [1, 3] | also measured
O=C(N[C@@H](Cc1c[nH]c2ccccc12)C(=O)O)c1ccc2nc(-c3ccccc3)c(-c3ccccc3)nc2c1 | 4.30 to 5.00 | – | – | –
Cc1ccc(-c2nc3cc(C(=O)O)ccc3nc2-c2ccc(Cl)cc2)cc1 | – | > 5.00 | – | pIC50 ([1]; Huh-7, 72 h): 4.30 to 5.00
COC(=O)c1ccc2nc(-c3ccc(F)cc3)c(-c3ccc(F)cc3)nc2c1 | < 4.30 | – | < 4.30 | –
O=C(N[C@@H](Cc1c[nH]c2ccc(O)cc12)C(=O)O)c1ccc2nc(-c3ccccc3)c(-c3ccccc3)nc2c1 | – | < 4.30 | – | –
NC(=O)[C@H](Cc1c[nH]c2ccc(O)cc12)NC(=O)c1ccc2nc(-c3ccc(F)cc3)c(-c3ccc(F)cc3)nc2c1 [R=NH2, X=OH] | – | – | – | pIC50 (HCV NS5B polymerase): > 5.00; pEC50 [1, 4]: 4.30 to 5.00
O=C(O)c1ccc2nc(-c3ccccn3)c(-c3ccccn3)nc2c1 | < 4.30 | – | < 4.30 | –
COC(=O)[C@H](Cc1c[nH]c2ccc(O)cc12)NC(=O)c1ccc2nc(-c3ccc(F)cc3)c(-c3ccc(F)cc3)nc2c1 [R=OCH3, X=OH] | – | – | – | pIC50 (HCV NS5B polymerase): > 5.00; pEC50 [1, 4]: 4.30 to 5.00
O=C(N[C@@H](Cc1c[nH]c2ccccc12)C(=O)O)c1ccc2nc(-c3ccccn3)c(-c3ccccn3)nc2c1 | < 4.30 | – | – | pIC50 ([1]; Huh-7, 72 h): < 4.30
COC(=O)[C@H](Cc1c[nH]c2ccccc12)NC(=O)c1ccc2nc(-c3ccccn3)c(-c3ccccn3)nc2c1 | < 4.30 | – | < 4.30 | –
O=C(O)c1ccc2nc(-c3ccccc3)c(-c3ccccc3)nc2c1 | > 5.00 | – | < 4.30 | –
O=C(N[C@@H](Cc1c[nH]c2ccc(O)cc12)C(=O)O)c1ccc2nc(-c3ccc(F)cc3)c(-c3ccc(F)cc3)nc2c1 [R=OH, X=OH] | – | – | – | pIC50 (HCV NS5B polymerase): > 5.00; pEC50 [1, 4]: 4.30 to 5.00
Cc1ccc(-c2nc3cc(C(=O)N[C@@H](Cc4c[nH]c5ccc(O)cc45)C(=O)O)ccc3nc2-c2ccc(Cl)cc2)cc1 | – | > 5.00 | – | –
COC(=O)[C@H](Cc1c[nH]c2ccccc12)NC(=O)c1ccc2nc(-c3ccccc3)c(-c3ccccc3)nc2c1 | – | < 4.30 | – | –
